Assay results: patent US8822482B2, “Icotinib hydrochloride, synthesis, crystalline forms, pharmaceutical compositions, and uses thereof” (Beta Pharma, Inc., priority 2008, dated 2014)
Where two headings read alike, the source gives them in different places.

Experiments:
EGFR tyrosine kinase = EGFR tyrosine kinase (Homo sapiens, UniProt P00533); assay: Inhibition of EGFR tyrosine kinase, 32P-ATP Crk substrate phosphorylation, polyacrylamide gel electrophoresis; assay type: biochemical; settings: for inhibition at 0.0625 µM: 62.5 nM
Sequence of EGFR tyrosine kinase (P00533 25-1210): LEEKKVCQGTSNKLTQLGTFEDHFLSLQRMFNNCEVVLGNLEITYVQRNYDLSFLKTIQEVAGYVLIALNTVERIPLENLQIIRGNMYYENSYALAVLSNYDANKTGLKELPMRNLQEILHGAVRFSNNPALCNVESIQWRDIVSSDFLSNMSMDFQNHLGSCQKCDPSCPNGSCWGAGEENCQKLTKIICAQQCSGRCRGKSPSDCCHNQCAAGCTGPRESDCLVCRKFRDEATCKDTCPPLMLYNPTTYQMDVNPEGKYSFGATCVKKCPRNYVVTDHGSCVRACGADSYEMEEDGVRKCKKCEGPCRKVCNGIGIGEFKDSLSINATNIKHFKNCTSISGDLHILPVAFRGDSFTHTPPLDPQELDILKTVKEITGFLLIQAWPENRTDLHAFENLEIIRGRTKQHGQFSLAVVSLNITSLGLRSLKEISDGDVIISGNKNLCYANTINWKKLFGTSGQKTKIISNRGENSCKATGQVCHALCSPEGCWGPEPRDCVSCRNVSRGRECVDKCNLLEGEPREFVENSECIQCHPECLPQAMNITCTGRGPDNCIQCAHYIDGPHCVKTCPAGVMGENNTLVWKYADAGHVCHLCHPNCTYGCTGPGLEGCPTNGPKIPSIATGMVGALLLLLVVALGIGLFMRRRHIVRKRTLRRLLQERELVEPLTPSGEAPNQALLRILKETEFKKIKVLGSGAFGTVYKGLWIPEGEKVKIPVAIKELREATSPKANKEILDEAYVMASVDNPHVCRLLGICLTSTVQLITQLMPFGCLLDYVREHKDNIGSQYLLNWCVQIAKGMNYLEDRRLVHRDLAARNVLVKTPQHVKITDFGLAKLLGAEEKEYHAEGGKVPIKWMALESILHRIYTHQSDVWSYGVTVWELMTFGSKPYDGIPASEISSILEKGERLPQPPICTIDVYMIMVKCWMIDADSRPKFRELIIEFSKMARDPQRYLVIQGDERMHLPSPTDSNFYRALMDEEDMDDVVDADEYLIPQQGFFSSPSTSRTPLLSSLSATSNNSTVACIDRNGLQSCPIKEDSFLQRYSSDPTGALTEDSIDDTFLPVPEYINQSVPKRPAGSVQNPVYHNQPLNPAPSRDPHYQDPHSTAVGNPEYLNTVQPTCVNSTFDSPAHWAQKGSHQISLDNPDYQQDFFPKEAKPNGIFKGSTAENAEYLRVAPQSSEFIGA
Method: Method: This method is based on the ability of protein kinases to catalyze substrate phosphorylation; radioisotope ^32P-labeled ATP (^32P-γ-ATP) is utilized in the reaction system to radioactively tag the protein substrate with ^32P. After separation and isolation of the protein substrate by polyacrylamide gel electrophoresis, the intensity of the radioactive ^32P-labeled protein substrate is recorded.
The kinase reaction buffer included 1 μM of non-isotope labeled-ATP. […] The mixture was incubated on ice for 10 min, and 1 μCi of ^32P-γ-ATP was then added. After incubation at 30° C. for 20 min, SDS (sodium dodecyl sulfate) sample buffer was added, and the mixture was boiled in a 100° C. water bath for 4 min. The samples were separated by 10% SDS-PAGE. After vacuum drying of the polyacrylamide gel, the intensity of radioactively labeled proteins were measured and recorded using a Phosphorimager (Molecular Dynamics Inc.). The signal was quantitatively analyzed utilizing ImageQuant software. The degree of Crk substrate phosphorylation was used to estimate the activity of the kinase. Inhibition (%)=(1−kinase activity of the test group/kinase activity of control group)×100%

[1] = tested on: EGFR tyrosine kinase-mediated intracellular protein tyrosine phosphorylation in A431 cells; assay: Inhibition of EGFR-mediated protein phosphorylation at the cellular level (A431 cells, EGF-stimulated, anti-phosphotyrosine blot); assay type: cell-based; settings: Homo sapiens
Method: Methods: The experiment utilized a high EGFR-expressing cell line, A431 (human epidermoid carcinoma). A431 cells in logarithmic growth phase were seeded into 12-well cell culture plates (5×10^5 cells/well); the cells were grown in DMEM cell culture medium (Gibco Company) containing 10% fetal calf serum (FCS) at 37° C. in 5% CO2 for 18 hours. The cells were washed twice with PBS buffer, and DMEM without FCS was then added. After incubating for 18 hours, Icotinib hydrochloride Crystalline Form I in dimethyl sulfoxide (DMSO) was added to individual wells at final concentrations of 0, 10, 50, 250 or 1000 nM. After incubating at 37° C. for 2.5 hours, 100 ng/ml of EGF was added to stimulate the cells for 5 minutes. Cells were then extracted in the presence 1 mM vanadate (inhibits dephosphorylation) to collect total cellular proteins, and proteins were resolved by 10% SDS-PAGE and transferred to nitrocellulose. Following detection of phosphorylated proteins with anti-phosphotyrosine antibodies (PY99 and 4G10, Upstate Biotech) and visualization with a horseradish peroxidase-labeled second antibody (Transduction Laboratories, Inc.) and ECL chemiluminescence (Amersham Corp.), bands were quantified by densitometry. Membranes were then stripped and incubated with anti-EGFR antibodies to compare amounts of EGFR in cells exposed to different concentrations of Icotinib hydrochloride Crystalline Form I as an internal control. Inhibition (%)=(1−kinase activity of the test group/kinase activity of control group)×100%

[2] = Pharmacology and toxicology experiments, safety pharmacology; assay type: in vivo, Beagle dogs, mice, and rats
Method: Pharmacology and toxicology experiments in Beagle dogs, mice, and rats using Icotinib hydrochloride Crystalline Form I were also conducted.

in vivo = assay: in vivo
Method: (§1) In addition, non-clinical pharmacokinetic studies of Icotinib hydrochloride Crystalline Form I in Beagle dogs and rats were conducted.

P450 enzymes = assay: Induction of P450 enzymes in rat liver; assay type: in vivo
Method: as §1

[3] = Phase I clinical safety study, single doses of tablets; assay type: in vivo, human; settings: 25-1025 mg single doses, 76 subjects
[4] = Pharmacokinetic study of the different crystalline forms and the free base in rats; assay type: in vivo, Wistar rats; settings: for The area under the concentration-time curve (0-infinity) / The area under the concentration-time curve (0-t): fasted Wistar rats, oral suspension, dose equivalent to 35 mg/kg Icotinib hydrochloride, plasma, hydrochloride
Method: Drugs and reagents: Icotinib (free base) and Icotinib hydrochloride crystalline forms I, II, III, and IV were ground to fine particles. The material content (purity) was not less than 99.0%. Sodium carboxymethyl cellulose was medical supply graded. Experimental animals: Wistar rats, male and female, 150-220 g each. Pharmaceutical preparation: Weigh the appropriate amount of each substance and add sodium carboxymethyl cellulose to 0.5%. Prepare a suspension at a final concentration of 3.5 mg/mL in water. Administration and sample collection: Each suspension was administered orally to fasted Wistar rats at a dose equivalent to 35 mg/kg Icotinib hydrochloride in a dose volume of 10 ml/kg. […] After purification, samples were analyzed by high performance liquid chromatography. The chromatographic conditions utilized C18-silane bonded silica as stationary phase, 0.02 mol/L of sodium dihydrogen phosphate in acetonitrile (40:60, using sodium hydroxide solution to adjust pH to 5.0) as the mobile phase and a detection wavelength of 334 nm.

SMILES: C#Cc1cccc(Nc2ncnc3cc4c(cc23)OCCOCCOCCO4)c1.Cl [4-[(3-ethynyl-phenyl)amino]-6,7-benzo-12-crown-quinazoline hydrochloride]
- inhibition at 0.0005 µM (EGFR tyrosine kinase; 0.5 nM, read-out: inhibition rate of EGFR kinase activity): 20.5%
- inhibition at 0.0025 µM (EGFR tyrosine kinase; 2.5 nM, read-out: inhibition rate of EGFR kinase activity): 36.6%
- inhibition at 0.0125 µM (EGFR tyrosine kinase; 12.5 nM, read-out: inhibition rate of EGFR kinase activity): 63%
- inhibition at 0.0625 µM (EGFR tyrosine kinase; parallel comparison with Arg kinase, read-out: inhibition of EGFR kinase): 97%
- inhibition at 0.0625 µM (EGFR tyrosine kinase; read-out: inhibition rate of EGFR kinase activity): 87.6%
- IC50 (EGFR tyrosine kinase; from the dose-response curve, read-out: IC50 to inhibit EGFR kinase activity): 0.005 µM
- EC50 ([1]; A-431, read-out: median effective concentration (EC50)): ~0.05 µM
- inhibition at 0.01 µM ([1]; A-431, A431 cells, 10 nM, read-out: inhibition of EGF-induced intracellular protein tyrosine phosphorylation): 5.4%
- inhibition at 0.05 µM ([1]; A-431, A431 cells, 50 nM, read-out: inhibition of EGF-induced intracellular protein tyrosine phosphorylation): 52.9%
- inhibition at 0.25 µM ([1]; A-431, A431 cells, 250 nM, read-out: inhibition of EGF-induced intracellular protein tyrosine phosphorylation): 61.9%
- inhibition at 1 µM ([1]; A-431, A431 cells, 1000 nM, read-out: inhibition of EGF-induced intracellular protein tyrosine phosphorylation): 63.7%
- bone marrow toxicity ([2]; Beagle dogs, mice, and rats): no bone marrow toxicity
- liver toxicity ([2]; Beagle dogs, mice, and rats): reversible liver toxicity
- oral toxicity ([2]; Beagle dogs, mice, and rats): low oral toxicity
- teratogenic, mutagenic and reproductive toxicity ([2]; additional toxicity testing): no teratogenic, mutagenic and reproductive toxicity
- effect on autonomic nervous system activity or the central nervous system ([2]; safety pharmacological test): no effect
- effect on respiration, blood pressure and circulatory function ([2]; safety pharmacological test): no effect
- route of elimination (in vivo): mainly through fecal excretion
- tissue distribution (in vivo): widely distributed to various tissues, but was low in brain tissue
- Tmax (in vivo; Beagle (dogs), rat, dog, po): ~1 h
- bioavailability (in vivo; Beagle (dogs), rat, dog, po): 27 to 62%
- induction effect on P450 enzymes (P450 enzymes): No significant induction effect
- clinical safety of single doses [3]: safe
- area under the concentration-time curve (0-t) and (0-infinity) relative to the free base form ([4]; Wistar rats, oral, 35 mg/kg equivalent): approximately 3 times
- The area under the concentration-time curve (0-infinity) ([4]; listed as Crystalline Form I): 93.73
- The area under the concentration-time curve (0-t) ([4]; listed as Crystalline Form I): 91.80
- The area under the concentration-time curve (0-infinity) ([4]; listed as Crystalline Form II): 90.77
- The area under the concentration-time curve (0-t) ([4]; listed as Crystalline Form II): 88.28
- The area under the concentration-time curve (0-infinity) ([4]; listed as Crystalline Form III): 90.26
- The area under the concentration-time curve (0-t) ([4]; listed as Crystalline Form III): 89.23
- The area under the concentration-time curve (0-infinity) ([4]; listed as Crystalline Form IV): 90.23
- The area under the concentration-time curve (0-t) ([4]; listed as Crystalline Form IV): 86.29
- inhibitory activity on drug metabolism enzymes (drug metabolism enzymes): no inhibitory activity
